Measured values from PMC4001449, “Thienoquinolines as Novel Disruptors of the PKCε/RACK2 Protein–Protein Interaction” (Journal of Medicinal Chemistry, 2014).

Experiments:
[1] = target: BTK (Homo sapiens, UniProt Q06187); assay: Kinase profiling (Dundee), BTK; assay type: biochemical; conditions: 25 μM solution
[2] = test system: PKCε; assay: PKCε translocation, cell fractionation and Western blotting in PC-3 cells; assay type: cell-based, human; conditions: Figure 3
Protocol: For PKCε translocation PC-3 cells were starved for 16 h, treated with 8 for 30 min, stimulated with 50 nM TPA for 5 min, lysed, and fractionated with a CNMCS/CNM compartmental protein extraction kit (BioChain Institute, Newark, CA). Western blotting was performed by a standard procedure as described by Garczarczyk et al.[27],[40] Cytosolic and membrane fractions were loaded onto SDS gels and transferred to an Immobilon membrane (Millipore, Billerica, MA). The membranes were incubated with rabbit polyclonal IgG antibodies for detection of PKCε (Santa Cruz Biotechnology; dilution 1:2000), for PKCε phosphoSer^729 (Millipore; dilution 1:1000), for PKCδ (Santa Cruz Biotechnology; dilution 1:1000), and for MARCKS phosphoSer152/156 (Cell Signaling Technology, Danvers, MA; dilution 1:1000). For the loading control tubulin (Santa Cruz Biotechnology; dilution 1:1000), and as marker for the membrane fraction, an IGFI-βR rabbit polyclonal IgG antibody (Santa Cruz; dilution 1:1000) and, as secondary antibodies, peroxidase-conjugated AffiniPure goat anti-rabbit IgG (Jackson ImmunoResearch Laboratories, West Grove, PA; dilution 1:20000) were used. GAPDH (Chemicon, Millipore, Billerica, MA; dilution 1:10000) was used as loading control for the cytosolic fraction. […]

[3] = test system: PC-3 prostate adenocarcinoma cells; assay: Cell proliferation (SRB assay), PC-3; assay type: cell-based, human; conditions: PC-3, 50 μM, 72 h
Protocol: (§1) HeLa cells containing a tetracycline/doxycycline-inducible constitutively active PKCε were described previously.[26] A PathDetect HeLa HLR cell line was obtained from Agilent, Technologies, Wokingham, U.K. PC-3 prostate adenocarcinoma cells were obtained from Dr. Helmut Klocker, Department of Urology, Innsbruck Medical University. For cell proliferation HeLa HLR and PC-3 cells were seeded at ∼10 000 cells per well in 96-well plates. After 4 h various concentrations of 8 were added and left for 72 h. Cell proliferation was determined by the SRB assay.[35]

[4] = test system: 109 different protein kinases; assay: Screen of 109 kinases (Dundee); assay type: biochemical; conditions: 25 μM solution; many kinases
[5] = test system: HeLa cells with doxycycline-inducible PKCε; assay: Invasion of HeLa cells through a reconstituted basement membrane matrix; assay type: cell-based; conditions: PKCε induced with doxycycline, Figure 6C
Protocol: (§2) Figure 6 Compound 8 inhibits MARCKS phosphorylation, cell proliferation, and invasion following treatment with 8. (A) HeLa cells were starved for 16 h in medium without fetal calf serum. Subsequently, they were treated with 50 μM solution of compound 8 for 30 min and 100 nM TPA for the last 10 min. An amount of 150 μg of protein from lysed cells was loaded onto SDS 8–16% gels. Tubulin was used as loading control. Below a representative blot, a bar graph corresponding to quantitative scans of three independent experiments (±SD) is shown. (B) Cell proliferation following treatment of HeLa and PC-3 cells with 8. The mean values (±SD) of three independent experiments, in which three samples were taken within each experiment, are shown. (C) Invasion of cells through a membrane. Cell invasion was determined as described in Experimental Section. In HeLa cells with a doxycycline-inducible PKCε the expression of PKCε was induced with doxycycline (control + Dox). The mean of three experiments (±SD) is shown: (∗) p = 0.03. The data are normalized to the control (100%). Therefore, the standard deviation for the control is 0.
For cell migration and motility, a scratch migration assay described by Cha et al.[41] was employed. […] Invasion of HeLa cells through a reconstituted basement membrane matrix was determined with a cell invasion assay kit from Chemicon (no. ECM550) as described by the manufacturer.

[6] = test system: HeLa-HLR cells; assay: Cell proliferation (SRB assay), HeLa-HLR; assay type: cell-based; conditions: 50 μM, 72 h
Protocol: as §1

[7] = target: T1, PKCβII/RACK1 interaction (Homo sapiens, UniProt P63244); assay: PKCβII/RACK1 in vitro binding assay; conditions: Figure 2B
T1 construct: 6-His
Protocol: This assay was similar to the PKCε/RACK2 binding assay described above. 6-his-tagged RACK1 was cloned into a pET-30a(+) vector (Novagen, Merck KGaA, Darmstadt, Germany) and purified with Ni-NTA agarose (Qiagen, Hilden, Germany). Final elution was performed with 500 nM imidazole in elution buffer (20 mM Tris-HCl/300 mM NaCl, 20% glycerol, pH 7.5). The integrity of purified recombinant protein was analyzed by Coomassie Blue staining and Western blotting. Then 200 ng RACK1 was coated onto 96-well EIA/RIA high binding plates (Costar, Corning, New York, NY) at 4 °C on a shaker with gentle agitation overnight. Compound 8 was added at room temperature for 30 min. Then 500 ng of recombinant GST-tagged PKCβII (ProQinase) was activated with CaCl2, phosphatidylserine, and TPA for 10 min. The RACK1-coated plates with and without 8 were incubated for 1 h with activated PKCβII. The interaction was determined with a primary rabbit anti-GST antibody (Santa Cruz) and corresponding HRP-conjugated goat anti-rabbit HRP conjugated secondary antibody (Santa Cruz) as described above for the PKCε/RACK2 interaction.

[8] = test system: MARCKS phosphorylation; assay: MARCKS phosphorylation in HeLa cells (Western blot); assay type: cell-based; conditions: 50 μM for 30 min, 100 nM TPA last 10 min
Protocol: as §2
For PKCε translocation PC-3 cells were starved for 16 h, treated with 8 for 30 min, stimulated with 50 nM TPA for 5 min, lysed, and fractionated with a CNMCS/CNM compartmental protein extraction kit (BioChain Institute, Newark, CA). […]

Sequence of BTK (Q06187 whole entry, species assumed): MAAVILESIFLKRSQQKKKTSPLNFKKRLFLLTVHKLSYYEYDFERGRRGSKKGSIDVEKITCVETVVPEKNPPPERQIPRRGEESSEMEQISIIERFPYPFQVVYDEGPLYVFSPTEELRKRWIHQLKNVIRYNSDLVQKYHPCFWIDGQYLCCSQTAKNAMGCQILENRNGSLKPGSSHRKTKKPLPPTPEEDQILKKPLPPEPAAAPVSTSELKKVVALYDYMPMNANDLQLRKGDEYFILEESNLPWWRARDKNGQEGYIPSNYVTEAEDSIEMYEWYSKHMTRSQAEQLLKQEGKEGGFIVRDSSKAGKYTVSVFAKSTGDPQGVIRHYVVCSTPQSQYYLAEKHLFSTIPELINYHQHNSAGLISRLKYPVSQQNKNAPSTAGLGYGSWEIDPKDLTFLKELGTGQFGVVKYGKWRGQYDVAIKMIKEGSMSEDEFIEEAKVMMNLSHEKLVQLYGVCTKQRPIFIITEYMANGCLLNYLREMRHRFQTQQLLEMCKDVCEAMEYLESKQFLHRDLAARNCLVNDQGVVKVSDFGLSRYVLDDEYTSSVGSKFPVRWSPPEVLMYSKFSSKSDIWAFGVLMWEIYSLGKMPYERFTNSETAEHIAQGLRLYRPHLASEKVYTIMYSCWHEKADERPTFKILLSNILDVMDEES

## CC(=O)c1cccc(NC(=O)c2sc3nc4cc5c(cc4cc3c2N)OCCO5)c1 [Compound 8, N-(3-acetylphenyl)-9-amino-2,3-dihydro-1,4-dioxino[2,3-g]thieno[2,3-b]quinoline-8-carboxamide]
[1]
  BTK activity, % of control: 42 % of control
[2]; TPA
  Ser729-phosphorylated PKCε at the membrane: did not reduce
[2]; TPA-induced
  Translocation of activated and phosphorylated PKCε to the membrane fraction: partially inhibits
[3]
  Inhibition of cell proliferation: did not show any inhibition
[4]
  Effect on kinases in a screen of 109 kinases: not or only slightly affected
[5]
  Invasion of cells through an extracellular matrix: inhibited
[6]
  Inhibition of cell proliferation: did not show any inhibition
[7]
  Prevention of the PKCβII/RACK1 interaction: does not prevent
[8]
  Phosphorylation of MARCKS: inhibited
